Measurements as given in ChEMBL document CHEMBL1159313, “Structure and stereochemistry of new cytotoxic clerodane diterpenoids from the bark of Casearia lucida from the Madagascar rainforest” (J Nat Prod, 2002).
In brackets after ≈: the same amount, converted by molar mass.

Assays:
Type in all cases: functional, cell-based
[1] = Cytotoxicity against human drug-sensitive […] cells after 48 hrs by microplate assay
[2] = test system: PC-3; assay: Cytotoxicity against human PC3 cells after 48 hrs by microplate assay; conditions: PC-3, 48 h
[3] = test system: K562; assay: Cytotoxicity against human K562 cells after 48 hrs by microplate assay; conditions: K562, 48 h
[4] = test system: A2780; assay: Cytotoxicity against human A2780 cells after 48 hrs by microplate assay; conditions: A2780, 48 h
[5] = test system: SK-BR-3; assay: Cytotoxicity against human SKBR3 cells after 48 hrs by microplate assay; conditions: SK-BR-3, 48 h
[6] = test system: HT-29; assay: Cytotoxicity against human HT-29 cells after 48 hrs by microplate assay; conditions: HT-29, 48 h
[7] = test system: HCT-116; assay: Cytotoxicity against human HCT116 cells after 48 hrs by microplate assay; conditions: HCT-116, 48 h
[8] = test system: ABAE; assay: Cytotoxicity against ABAE cells after 48 hrs by microplate assay; conditions: Bos taurus
[9] = test system: LX-1; assay: Cytotoxicity against human LX1 cells after 48 hrs by microplate assay; conditions: LX-1, 48 h
[10] = Cytotoxicity against human drug-resistant A2780DDP cells after 48 hrs by microplate assay

| SMILES | IC50 [1] [µg/mL] | IC50 [2] [µg/mL] | IC50 [3] [µg/mL] | IC50 [4] [µg/mL] | IC50 [5] [µg/mL] | IC50 [6] [µg/mL] | IC50 [7] [µg/mL] | IC50 [8] [µg/mL] | IC50 [9] [µg/mL] | IC50 [10] [µg/mL] |
| --- | --- | --- | --- | --- | --- | --- | --- | --- | --- | --- |
| C=CC(=C)CC[C@]1(C)[C@H]2C[C@H](OC(=O)C(C)CC)C=C3[C@H](OC(C)=O)O[C@H](OC(C)=O)[C@@]32[C@H](O)C[C@@H]1C (relative stereo) | 1.2 (≈ 2.31 µM) | 2.8 (≈ 5.4 µM) | 1.4 (≈ 2.7 µM) | 2.9 (≈ 5.59 µM) | 1.4 (≈ 2.7 µM) | 1 (≈ 1.93 µM) | 1.6 (≈ 3.08 µM) | 0.8 (≈ 1.54 µM) | 1.1 (≈ 2.12 µM) | 2.1 (≈ 4.05 µM) |
| C=CC(=C)CC[C@]1(C)[C@H]2C[C@@H](OC(=O)C(C)CC)C=C3[C@H](OC(C)=O)O[C@H](OC(C)=O)[C@@]32[C@H](OC)C[C@@H]1C (relative stereo) [CASEARLUCIN E] | 3 (≈ 5.63 µM) | 4.3 (≈ 8.07 µM) | 1.7 (≈ 3.19 µM) | 2.9 (≈ 5.44 µM) | 3.9 (≈ 7.32 µM) | 2.8 (≈ 5.26 µM) | 1.8 (≈ 3.38 µM) | 0.9 (≈ 1.69 µM) | 1.8 (≈ 3.38 µM) | 4.1 (≈ 7.7 µM) |
| C=C/C(C)=C/C[C@]1(C)[C@H]2C[C@H](OC(=O)C(C)CC)C=C3[C@H](OC(C)=O)O[C@H](OC(C)=O)[C@@]32[C@H](O)C[C@@H]1C (relative stereo) [CASEARLUCIN A] | 1 (≈ 1.93 µM) | 2.5 (≈ 4.82 µM) | 1.1 (≈ 2.12 µM) | 3 (≈ 5.78 µM) | 1.2 (≈ 2.31 µM) | 0.8 (≈ 1.54 µM) | 1.3 (≈ 2.51 µM) | 0.8 (≈ 1.54 µM) | 1 (≈ 1.93 µM) | 2.8 (≈ 5.4 µM) |
| C=C/C(C)=C/C[C@]1(C)[C@H]2C[C@H](OC(=O)C(C)CC)C=C3[C@H](OC(C)=O)O[C@H](OC(C)=O)[C@@]32[C@H](OC(C)=O)C[C@@H]1C (relative stereo) [CASEARLUCIN C] | 7.7 (≈ 13.7 µM) | 15 (≈ 26.8 µM) | 3.8 (≈ 6.78 µM) | 2.8 (≈ 4.99 µM) | 14 (≈ 25 µM) | 12 (≈ 21.4 µM) | 4.5 (≈ 8.03 µM) | 3.6 (≈ 6.42 µM) | 5 (≈ 8.92 µM) | 9.6 (≈ 17.1 µM) |
| C=CC(=C)CC[C@]1(C)[C@H]2C[C@H](OC(=O)C(C)CC)C=C3[C@H](OC(C)=O)O[C@H](OC(C)=O)[C@@]32[C@H](OC(C)=O)C[C@@H]1C (relative stereo) [CASEARLUCIN D] | 9.4 (≈ 16.8 µM) | 13 (≈ 23.2 µM) | 3.9 (≈ 6.96 µM) | 2.9 (≈ 5.17 µM) | 10 (≈ 17.8 µM) | 6.2 (≈ 11.1 µM) | 4.7 (≈ 8.38 µM) | 4.1 (≈ 7.31 µM) | 3.9 (≈ 6.96 µM) | 4.6 (≈ 8.2 µM) |
| C=CC(=C)CC[C@]1(C)[C@H]2C[C@H](OC(=O)C(C)CC)C=C3[C@H](OC(C)=O)O[C@H](OC(C)=O)[C@@]32[C@H](OC)C[C@@H]1C (relative stereo) | 1.4 (≈ 2.63 µM) | 3 (≈ 5.63 µM) | 1.4 (≈ 2.63 µM) | 2.9 (≈ 5.44 µM) | 3.5 (≈ 6.57 µM) | 1.3 (≈ 2.44 µM) | 1 (≈ 1.88 µM) | 0.8 (≈ 1.5 µM) | 1.2 (≈ 2.25 µM) | 2.9 (≈ 5.44 µM) |
